Measured values: patent publication US20250332173A1, “COMPOUNDS AND METHODS FOR MODULATING NUCLEIC ACID SPLICING” (REMIX THERAPEUTICS INC., priority 2021, published 2025)
Read-outs that look alike come from different tables or passages of the source.

How the values were obtained:
Format in all cases: cell-based, human
[1] = tested on: SMN2 mRNA; experiment: RT-qPCR splicing assay, SMN2 canonical junction (CJ) mRNA; details: Homo sapiens; Table 5 panel; canonical junction qPCR; compound concentration having 50% response in CJ decrease; read-out: SMN2 IC50 (decrease in CJ mRNA levels)
In short: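 Canonical-junction transcript levels in compound-treated A673 or K562 cells (24 h, up to 10 uM final) were determined from lysates by RT-qPCR with housekeeping-gene normalization.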

[2] = tested on: MYB mRNA; experiment: RT-qPCR splicing assay, MYB canonical junction (CJ) and alternative junction (AJ) mRNA; details: Homo sapiens; for AC50: increase in MYB alternative junction (AJ) mRNA, read-out: MYB AJ AC50
In short: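 A673 or K562 cells were treated for 24 h at 37 °C with an 11-point 3-fold compound dilution series (top final concentration 10 uM, DMSO ≤0.25%). After lysis, one-step TaqMan RT-qPCR quantified junction transcripts, normalized to PPIA for A673 or to GAPDH/GUSB for K562.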

[3] = tested on: Target C; experiment: HiBiT protein abundance assay, Target C (Promega Nano-Glo HiBiT Lytic Detection System, knock-in K562 cell line); details: Homo sapiens, K562, 24 h, HiBiT K562 cell line, 24 hours, top dose 10 μM; read-out: Effect on protein abundance, Target C (IC50 category)
In short: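 HiBiT knock-in K562 cells (10,000/well) were treated for 24 h at 37 °C with a 10-point 3-fold dilution series, top final concentration 10 μM, DMSO ≤0.25%. Lytic HiBiT luminescence was read, normalized to unmodified K562 and DMSO-treated controls, and IC50 was interpolated from a four-parameter logistic fit.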

[4] = Table 5 panel, canonical junction qPCR, compound concentration having 50% response in CJ decrease, read-out: MYB IC50 (decrease in CJ mRNA levels)
[5] = decrease in MYB canonical junction (CJ) mRNA, RT-qPCR, read-out: MYB CJ IC50

IC50 [1]	IC50 [2, 4]	IC50 [2, 5]	IC50 [3]	SMILES	AC50 ([2]; RT-qPCR)
< 0.1 µM	0.1 to 1 µM	0.1 to 1 µM	1 to 10 µM	Cc1cn2cc(-c3cc(F)c4c(=O)n(C5CCNC6(CC6)C5)ccc4c3)ncc2n1 (stereo not shown) [Compound 428, 8-fluoro-6-(2-methylimidazo[1,2-a]pyrazin-6-yl)-2-(4-azaspiro[2.5]octan-7-yl)isoquinolin-1(2H)-one]	0.1 to 1 µM
< 0.1 µM	< 0.1 µM	< 0.1 µM	< 0.1 µM	Cn1cc2cc(-c3cc(F)c4c(=O)n(C5CCNCC5)ccc4c3)cc(C#N)c2n1 [Compound 394, 5-(8-fluoro-1-oxo-2-(piperidin-4-yl)-1,2-dihydroisoquinolin-6-yl)-2-methyl-2H-indazole-7-carbonitrile]	< 0.1 µM
< 0.1 µM	< 0.1 µM	< 0.1 µM	< 0.1 µM	Cc1cn2nc(-c3cc(F)c4c(=O)n(C5CCNC6(CC6)C5)ccc4c3)cc(C)c2n1 (stereo not shown) [Compound 380, 6-(2,8-dimethylimidazo[1,2-b]pyridazin-6-yl)-8-fluoro-2-(4-azaspiro[2.5]octan-7-yl)isoquinolin-1(2H)-one]	< 0.1 µM
< 0.1 µM	1 to 10 µM	0.1 to 1 µM	1 to 10 µM	Cc1cn2cc(-c3ccc4c(=O)n([C@@H]5CCCNC5)ccc4c3)cc(F)c2n1 (single isomer, unassigned) [Compound 403]	1 to 10 µM
< 0.1 µM	0.1 to 1 µM	0.1 to 1 µM	1 to 10 µM	Cc1cn2nc(-c3ccc4c(=O)n(C5CCCNC5)ccc4c3)cc(C)c2n1 (stereo in doubt) [Compound 410, 6-{2,8-dimethylimidazo[1,2-b]pyridazin-6-yl}-2-[(3S)-piperidin-3-yl]isoquinolin-1-one]	0.1 to 1 µM
< 0.1 µM	1 to 10 µM	1 to 10 µM	1 to 10 µM	Cc1cn2cc(-c3ccc4c(=O)n([C@H]5CCCNC5)ccc4c3)cc(F)c2n1 [Compound 404, 6-{8-fluoro-2-methylimidazo[1,2-a]pyridin-6-yl}-2-[(3S)-piperidin-3-yl]isoquinolin-1-one]	1 to 10 µM
< 0.1 µM	< 0.1 µM	< 0.1 µM	< 0.1 µM	Cc1cn2nc(-c3cc(F)c4c(=O)n([C@@H]5CCNC6(CC6)C5)ncc4c3)cc(C)c2n1 [Compound 446]	< 0.1 µM
< 0.1 µM	0.1 to 1 µM	0.1 to 1 µM	< 0.1 µM	Cc1cn2nc(-c3ccc4c(=O)n([C@@H]5CCNC6(CC6)C5)ncc4c3)cc(C)c2n1 (stereo in doubt) [Compound 368, 2-[(7R)-4-azaspiro[2.5]octan-7-yl]-6-{2,8-dimethylimidazo[1,2-b]pyridazin-6-yl}phthalazin-1-one]	0.1 to 1 µM
< 0.1 µM	< 0.1 µM	< 0.1 µM	< 0.1 µM	Cc1cn2nc(-c3ccc4c(=O)n([C@H]5CCNC6(CC6)C5)ccc4c3)cc(C)c2n1 [Compound 445]	< 0.1 µM
> 10 µM	> 10 µM	> 10 µM	> 10 µM	Cn1cc2cc(-n3cnc4cc(C5CCNCC5)ccc4c3=O)ccc2n1 [Compound 172]	> 10 µM
< 0.1 µM	< 0.1 µM	< 0.1 µM	1 to 10 µM	Cc1cn2nc(-c3cc(F)c4c(=O)n(C5CCNC5)ccc4c3)cc(C)c2n1 (stereo in doubt) [Compound 392, (S)-6-(2,8-dimethylimidazo[1,2-b]pyridazin-6-yl)-8-fluoro-2-(pyrrolidin-3-yl)isoquinolin-1(2H)-one]	< 0.1 µM
0.1 to 1 µM	1 to 10 µM	1 to 10 µM	> 10 µM	Cc1cn2cc(-c3ccc4c(=O)n(C5CCNC5)cc(C)c4c3)cc(F)c2n1 (stereo not shown) [Compound 441, 6-{8-fluoro-2-methylimidazo[1,2-a]pyridin-6-yl}-4-methyl-2-(pyrrolidin-3-yl)isoquinolin-1-one]	1 to 10 µM
< 0.1 µM	< 0.1 µM	< 0.1 µM	< 0.1 µM	Cc1cn2nc(-c3cc(F)c4c(=O)n([C@@H]5CCNC6(CC6)C5)ccc4c3)cc(C)c2n1 (single isomer, unassigned) [Compound 425]	< 0.1 µM
< 0.1 µM	< 0.1 µM	< 0.1 µM	< 0.1 µM	Cc1cn2nc(-c3cc(F)c4c(=O)n([C@H]5CCNC6(CC6)C5)ccc4c3)cc(C)c2n1 (single isomer, unassigned) [Compound 426]	< 0.1 µM
> 10 µM	> 10 µM	> 10 µM	> 10 µM	Cc1cn2cc(-c3cc(N)c4c(=O)n(C5CCNCC5)cnc4c3)cc(C#N)c2n1 [Compound 364, 6-[5-amino-4-oxo-3-(piperidin-4-yl)quinazolin-7-yl]-2-methylimidazo[1,2-a]pyridine-8-carbonitrile]	> 10 µM
< 0.1 µM	< 0.1 µM	< 0.1 µM	< 0.1 µM	Cc1cn2cc(-c3cc(F)c4c(=O)n(C5CCNC6(CC6)C5)ccc4c3)cc(C)c2n1 (stereo not shown) [Compound 416, 2-{4-azaspiro[2.5]octan-7-yl}-6-{2,8-dimethylimidazo[1,2-a]pyridin-6-yl}-8-fluoroisoquinolin-1-one]	< 0.1 µM
< 0.1 µM	< 0.1 µM	0.1 to 1 µM	0.1 to 1 µM	CCN1CCC(n2ccc3cc(-c4cc(C)c5nc(C)cn5n4)ccc3c2=O)CC1 [Compound 402, 6-{2,8-dimethylimidazo[1,2-b]pyridazin-6-yl}-2-(1-ethylpiperidin-4-yl)isoquinolin-1-one]	< 0.1 µM
0.1 to 1 µM	0.1 to 1 µM	0.1 to 1 µM	0.1 to 1 µM	Cc1cn2cc(-c3cc(F)c4c(=O)n(C5CCOC5)cnc4c3)cc(C#N)c2n1 (stereo in doubt) [Compound 500, (S)-6-(5-fluoro-4-oxo-3-(tetrahydrofuran-3-yl)-3,4-dihydroquinazolin-7-yl)-2-methylimidazo[1,2-a]pyridine-8-carbonitrile]	0.1 to 1 µM
< 0.1 µM	0.1 to 1 µM	0.1 to 1 µM	1 to 10 µM	Cn1cc2cc(-c3cc(F)c4c(=O)n(C5CCNC6(CC6)C5)ccc4c3)c(O)c(F)c2n1 (stereo not shown) [Compound 420, 2-{4-azaspiro[2.5]octan-7-yl}-8-fluoro-6-(7-fluoro-6-hydroxy-2-methylindazol-5-yl)isoquinolin-1-one]	0.1 to 1 µM
< 0.1 µM	< 0.1 µM	< 0.1 µM	< 0.1 µM	Cc1cn2nc(-c3ccc4c(=O)n(C5CCNC6(CC6)C5)ccc4c3)cc(C)c2n1 (stereo not shown) [Compound 384]	< 0.1 µM
< 0.1 µM	< 0.1 µM	< 0.1 µM	< 0.1 µM	Cc1cn2cc(-c3cc(F)c4c(=O)n(C5CCNC6(CC6)C5)ccc4c3)cc(Cl)c2n1 (stereo not shown) [Compound 413, 2-{4-azaspiro[2.5]octan-7-yl}-6-{8-chloro-2-methylimidazo[1,2-a]pyridin-6-yl}-8-fluoroisoquinolin-1-one]	< 0.1 µM
0.1 to 1 µM	1 to 10 µM	1 to 10 µM	1 to 10 µM	Cc1cn2nc(-c3ccc4c(=O)n(C5CCCNC5)ccc4c3)cc(C)c2n1 (stereo in doubt) [Compound 411, 6-{2,8-dimethylimidazo[1,2-b]pyridazin-6-yl}-2-[(3R)-piperidin-3-yl]isoquinolin-1-one]	1 to 10 µM
< 0.1 µM	< 0.1 µM	< 0.1 µM	0.1 to 1 µM	Cc1cn2cc(-c3ccc4c(=O)n(C5CCNCC5)cc(C)c4c3)cc(F)c2n1 [Compound 440, 6-{8-fluoro-2-methylimidazo[1,2-a]pyridin-6-yl}-4-methyl-2-(piperidin-4-yl)isoquinolin-1-one]	< 0.1 µM
< 0.1 µM	< 0.1 µM	0.1 to 1 µM	1 to 10 µM	Cc1cn2nc(-c3cc(O)c4c(=O)n(C5CCNC5)ccc4c3)cc(C)c2n1 (stereo not shown) [Compound 432, 6-{2,8-dimethylimidazo[1,2-b]pyridazin-6-yl}-8-hydroxy-2-(pyrrolidin-3-yl)isoquinolin-1-one]	< 0.1 µM
> 10 µM	1 to 10 µM	> 10 µM	> 10 µM	CN1CCC(Nc2ccc3c(=O)n(-c4ccc5nn(C)cc5c4)cnc3c2)CC1 [Compound 163]	1 to 10 µM

SMILES	IC50 [1]	IC50 [2, 4]	IC50 [2, 5]	IC50 [3]	AC50 ([2]; RT-qPCR)
Cn1cc2cc(-n3cnc4cc(C5=CC6CCC(C5)N6)ccc4c3=O)ccc2n1 (stereo not shown) [Compound 160]	> 10 µM	> 10 µM	> 10 µM	> 10 µM	> 10 µM
